The values below come from US12655113B2, “Biphenyl compounds as SOCE modulators, compositions and uses thereof” (Università degli Studi del Piemonte Orientale “Amedeo …, priority 2020, dated 2026).

For one series, the target named is endogenous TRPC1/5 (Homo sapiens, UniProt P48995+Q9UL62). The note with it: cited from earlier work.
The test system of series [1] is tBHQ-induced calcium influx into Hek cells (SOCE). The series is described as follows: Store-operated calcium entry (SOCE) by Fura-2 Ca2+ measurements in Hek cells. Format: cell-based, Human.
The target in a further series is ICRAC (Homo sapiens, UniProt Q96D31). Particulars: read-out: IC50 (ICRAC inhibition); cited from earlier work.
Chain of ICRAC (Q96D31 whole entry): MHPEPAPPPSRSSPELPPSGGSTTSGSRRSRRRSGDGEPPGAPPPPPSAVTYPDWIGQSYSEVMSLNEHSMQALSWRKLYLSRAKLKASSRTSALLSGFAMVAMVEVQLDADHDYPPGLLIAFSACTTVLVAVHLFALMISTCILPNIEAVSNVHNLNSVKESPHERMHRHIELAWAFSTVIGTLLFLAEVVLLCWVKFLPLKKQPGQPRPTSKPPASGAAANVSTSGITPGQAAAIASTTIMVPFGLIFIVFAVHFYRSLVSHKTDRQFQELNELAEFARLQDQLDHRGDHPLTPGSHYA
In series [2] the test system is vascular smooth muscle cells. The note with it: cited from earlier work.
Series [3] has as its system metabotropic glutamate, muscarinic acetylcholine and GABA B receptors, GABA A, AMPA and NMDA receptors, tetrodotoxin-sensitive Na+ channels, N- and P/Q-type …. The note with it: cited from earlier work.
For a further series, the system named is STIM1 clustering. The note with it: vascular smooth muscle cells; cited from earlier work.
In series [4] the target is T1, overexpressed TRPC5 channels (Homo sapiens, UniProt Q9UL62).
T1 sequence (Q9UL62 1-973): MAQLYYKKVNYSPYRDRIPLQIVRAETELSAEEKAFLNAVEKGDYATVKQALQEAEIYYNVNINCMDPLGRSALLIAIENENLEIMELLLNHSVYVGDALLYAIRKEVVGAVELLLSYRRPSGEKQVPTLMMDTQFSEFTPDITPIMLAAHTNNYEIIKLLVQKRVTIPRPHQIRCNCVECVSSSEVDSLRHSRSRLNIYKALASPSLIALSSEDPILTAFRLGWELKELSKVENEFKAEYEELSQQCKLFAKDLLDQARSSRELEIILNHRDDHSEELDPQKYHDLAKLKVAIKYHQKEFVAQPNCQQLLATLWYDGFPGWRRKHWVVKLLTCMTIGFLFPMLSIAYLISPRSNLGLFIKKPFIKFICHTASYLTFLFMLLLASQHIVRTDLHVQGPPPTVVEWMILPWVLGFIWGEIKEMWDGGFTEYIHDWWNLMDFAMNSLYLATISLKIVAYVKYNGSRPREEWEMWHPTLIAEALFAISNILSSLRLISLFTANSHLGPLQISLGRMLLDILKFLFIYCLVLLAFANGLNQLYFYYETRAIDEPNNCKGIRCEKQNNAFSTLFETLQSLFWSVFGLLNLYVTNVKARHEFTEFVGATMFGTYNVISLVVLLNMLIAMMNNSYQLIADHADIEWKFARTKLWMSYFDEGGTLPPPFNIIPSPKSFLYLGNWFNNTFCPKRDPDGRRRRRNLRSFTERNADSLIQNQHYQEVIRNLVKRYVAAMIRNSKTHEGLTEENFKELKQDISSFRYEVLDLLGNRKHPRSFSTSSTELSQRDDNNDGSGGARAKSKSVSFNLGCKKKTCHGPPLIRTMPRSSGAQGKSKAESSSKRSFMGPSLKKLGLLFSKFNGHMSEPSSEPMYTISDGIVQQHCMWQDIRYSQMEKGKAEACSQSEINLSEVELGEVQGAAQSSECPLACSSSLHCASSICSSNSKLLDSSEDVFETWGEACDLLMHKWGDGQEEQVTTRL
The note with it: cited from earlier work.

Series [5] relates to T cell cytokine production. Particulars: T cells; cited from earlier work.
The nature of series [6]: Cytotoxicity, residual cell viability after 24 hours. It counts as cell-based. The note with it: 10 μM.

Chain of endogenous TRPC1/5 (P48995 whole entry, one chain of several): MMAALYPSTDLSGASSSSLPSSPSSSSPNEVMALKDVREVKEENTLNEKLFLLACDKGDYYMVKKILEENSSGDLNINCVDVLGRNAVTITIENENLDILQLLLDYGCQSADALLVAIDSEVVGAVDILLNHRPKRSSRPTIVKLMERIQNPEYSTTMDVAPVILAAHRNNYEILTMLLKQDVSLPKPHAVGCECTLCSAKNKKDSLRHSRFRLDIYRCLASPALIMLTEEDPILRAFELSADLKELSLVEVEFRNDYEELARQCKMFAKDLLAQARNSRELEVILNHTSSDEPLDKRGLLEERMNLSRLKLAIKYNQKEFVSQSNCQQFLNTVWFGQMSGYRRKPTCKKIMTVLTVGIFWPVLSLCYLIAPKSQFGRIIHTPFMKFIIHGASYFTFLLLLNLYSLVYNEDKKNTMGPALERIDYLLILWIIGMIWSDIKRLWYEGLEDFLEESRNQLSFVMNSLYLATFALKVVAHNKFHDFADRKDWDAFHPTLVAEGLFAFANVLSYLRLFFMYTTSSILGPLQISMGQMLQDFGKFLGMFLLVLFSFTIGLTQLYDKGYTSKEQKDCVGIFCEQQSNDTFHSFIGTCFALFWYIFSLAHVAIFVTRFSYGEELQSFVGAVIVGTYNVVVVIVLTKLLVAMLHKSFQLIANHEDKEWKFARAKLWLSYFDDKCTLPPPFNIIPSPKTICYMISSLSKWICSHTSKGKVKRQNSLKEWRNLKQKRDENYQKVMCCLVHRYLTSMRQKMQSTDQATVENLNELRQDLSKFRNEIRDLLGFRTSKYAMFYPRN

Consider `COc1ccc(OC)c(-c2ccc(NC(=O)c3ccncc3F)cc2)c1` [Synta66, 3-fluoropyridine-4-carboxylic acid (2′,5′-dimethoxybiphenyl-4-yl)amide], for which the “inhibition of endogenous TRPC1/5” value on endogenous TRPC1/5 is reported as “does not inhibit”. Moreover, the “IC50 in inhibiting SOCE activity” value in series [1] is given as “in the nanomolar range”. The IC50 on ICRAC was ~1 µM; in series [2] it was ~0.03 µM. The “effect on receptors and ion channels (mGlu, muscarinic, GABA B, GABA A, AMPA, NMDA, TTX-sensitive Na+, N- and P/Q-type Ca2+ channels)” value in series [3] was “does not affect”. Besides, in the series with STIM1 clustering, the “interference with STIM1 clustering” value was “does not interfere with STIM1 clustering”. Besides, in series [4], the “inhibition of overexpressed TRPC5 channels” value is “does not inhibit”. For the same compound, the “production of IFN-gamma, IL-2 and IL-17” value in [5] was “inhibits the production”. The “production of IL-8” value in [5] is “but not of IL-8”. The residual cell viability in series [6] is reported as 76%.
